Experiments:
[1] = tested on: Fusarium solani planktonic cells; parameters: method as in PMID 17240982; settings: cited from earlier work
[2] = tested on: fungal mutants lacking glucosylceramide synthase; settings: cited from earlier work
[3] = tested on: A-431 (human epidermoid carcinoma) cells; assay: MTT cell viability, A-431 tumor cells; format: cell-based; settings: 24 h, p < 0.001
[4] = tested on: lung inflammatory cells, C57BL/6 mice; assay: Lung histology (HE), inflammatory foci; format: in vivo, mouse
Excerpt: Figure 7 Psd1 inhibited the appearance of inflammatory cells in lung tissues. Two animals from each group of the in vivo experiment were anaesthetized and submitted to transcardial perfusion for further histological procedures. The lungs were removed and prepared for hematoxylin and eosin (HE) staining as described in the Materials and Methods. (A) Representative images from the lungs of one animal from each experimental group. […] The left and right panels indicate 10× and 20× magnifications, and the bars represent 200 and […], respectively. (B) Quantification of inflammatory infiltration (± SEM) was obtained in six fields, corresponding to 90% of the tissue. […] Values represent the mean ± SD of two independent experiments analyzed by one-way ANOVA and Bonferroni’s multiple comparison test.
After the above procedure, two animals from each group were anaesthetized and submitted to treatment with 4% paraformaldehyde in 0.1 M phosphate buffer (pH 7.4) by transcardial perfusion. The lung was removed and immersed in the same fixative solution. The lung specimens were sliced into 5 mm pieces, dehydrated through an ascending ethanol series (70, 95, and 100% ethanol for 30 min each) and then embedded in paraffin using standard procedures. Serial 5 µm-thick sections were prepared using a sliding microtome (Leica Microsystems, Wetzlar, Germany). Hematoxylin and eosin (HE) staining wereperformed to quantify possible foci of inflammatory infiltrates and fibrosis in experimental and control animals. The stained sections were observed, and digital images were taken with a Zeiss AxioPhot fluorescence microscope (Carl-Zeiss, Oberkochen, Germany). Specifically, two slices of each sample (six fields of each slice corresponding to approximately 90% of the slice) were used for quantitative analysis to obtain the mean value.

[5] = tested on: recombinant cyclin F-GST; assay: Surface plasmon resonance, Psd1-cyclin F interaction; format: binding
Experimental: Surface plasmon resonance (SPR) assays were run on a Biacore X (GE Healthcare Life Sciences, Amersham, UK) apparatus in real time using a CM5 sensor chip at 25 °C. Briefly, CM5 chip activation was performed by injection of 100 µL of a 1:1 mixture of amine coupling kit (750 mg 1-ethyl-3-(3-dimethylaminopropyl) carbodiimide hydrochloride (EDC), 115 mg N-hydroxysuccinimide (NHS), 2 × 10.5 mL 1.0 M ethanolamine-HCl pH 8.5) with a continuous flow of 2 µL/min. Then, 100 µL of […] recombinant cyclin F-GST diluted in 10 mM sodium acetate pH 4.0 buffer was immobilized by amine coupling onto the carboxylate dextran layer of CM5 with the same flow. This was injected with 80 µL of 1 M ethanolamine pH 8.0 to block the remaining binding free sites of the protein. To evaluate the interaction of Psd1 with the cyclin F protein, increasing concentrations of the peptide (10–240 µM) in 100 µL of running buffer (10 mM HEPES, 150 mM NaCl, pH 7.4) were injected using a flow rate of 15 µL/min for 4 min. After the injection ended, the dissociation phase was measured in not less than 300 s. The Psd1-GST-cyclin F interaction curves were subtracted from the respective curves obtained for Psd1-GST to discount possible artifact interactions with GST alone. […]

[6] = cited from earlier work
Excerpt: (§1) The mechanism of action proposed for Psd1 antifungal activity includes its interaction with specific cell wall/membrane lipid targets, such as C8-desaturated and C9-methylated glucosylceramide (GlcCer), a fungal exclusive GSL, and ergosterol.

[7] = tested on: several fungal species; settings: cited from earlier work
Excerpt: as §1

[8] = tested on: R8 (rat lymphocyte) cells; assay: LDH release cell viability, healthy R8 cells; format: cell-based; settings: 30 µM, 3 h (6 µM not tested)
[9] = tested on: B16F10 cells; assay: Flow cytometry-based apoptosis detection (sub-G0/G1 DNA content); format: cell-based, murine; settings: 50 µM, 24 h, propidium iodide; control Sub-G1 4.4%
Experimental: Figure 2 Psd1 promotes B16F10 live cell membrane permeabilization as monitored by SYTOX Green fluorescence. (A) Psd1 untreated and hydrogen peroxide-treated B16F10 cells. (B) A total of 1.5 × 10^4 B16F10 cells were incubated with 3 or 50 µM Psd1 for 30 min. (C) 1.5 × 10^4 B16F10 cells were incubated with 50 µM Psd1 for 1 h. All experiments were performed at 37 °C. Nucleus staining is shown in green (SYTOXGreen), and mitochondria are shown in red (MitoTracker Red CMXRos). Images are shown at 20× magnification. […] (E) Psd1 induces apoptosis in B16F10 cells. B16F10 cells were treated with 50 µM Psd1 for 24 h and labeled with propidium iodide, and the DNA content was analyzed by flow cytometry for the sub-G0/G1 profile. At least two independent experiments were performed. TEXT PRINTED IN THE PICTURE: (E) Control: Sub-G1: 4.4% | (E) Psd1: Sub-G1: 60.6% (50μM)
B16F10 cells (4 × 10^5 cells) were treated with 50 μM Psd1 for 24 h. After treatment, the cells were trypsinized, centrifuged, and washed twice with phosphate-buffered saline (PBS). The cells were then stained with Nicoletti buffer (0.1% sodium citrate, 0.1% NP-40, 200 μg/mL RNase, and 50 μg/mL propidium iodide). Doublets and debris were identified and excluded. Analysis of the DNA content was performed by collecting 20,000 events using a BD FACSCalibur flow cytometer (BD Biosciences, San Jose, CA, USA). […]

Substance: Psd1: 46-amino acid residue plant defensin isolated from pea seeds, expressed in Pichia pastoris (PDB 1JKZ) (KTCEHLADTYRGVCFTNASCDDHCKNKAHLISGTCHNWKCFCTQNC)
- Internalization and cell cycle effect [1]: internalized in Fusarium solani planktonic cells, directing their cell cycle impairment and causing fungal endoreduplication
- Resistance of mutants to Psd1 antifungal activity and permeabilization [2]: partially resistant
- A-431 growth, result in words (MTT) ([3]; 12.5 µM): decreased growth
- Maximum reduction of A-431 growth (MTT) ([3]; 50 µM): 20%
- Inflammatory foci, Psd1 alone ([4]; 1 mg/kg Psd1 alone, i.v., day 21, p < 0.001 vs B16F10): very low inflammatory foci
- Number of lung inflammatory cells ([4]; 1 mg/kg Psd1 i.v. with B16F10 cells): near zero
- Accumulation of lung inflammatory cells ([4]; 1 and 3 mg/kg Psd1 i.v. with B16F10 cells, day 21, p < 0.001 vs B16F10): significant reduction in the accumulation of inflammatory cells
- SPR association phase, onset of response ([5]; after Psd1 injection, 15 µL/min, 4 min): 80 s
- SPR dissociation phase ([5]; after injection ended): full dissociation phase was observed
- Affinity to cholesterol-enriched lipid bilayers [6]: does not show good affinity
- Antimicrobial activity against fungi [7]: well-documented antimicrobial activity against several fungal species
- R8 cell viability (LDH release) [8]: no alteration in cell viability
- Sub-G0/G1 (sub-G1) cells [9]: 60.6%
